We go through two compounds from US10548313B2, “Acetyl-CoA carboxylase modulators” (Monsanto Technology LLC, priority 2013, dated 2020).

Assay [1] has as its system Collectotrichum graminicola. The assay is described as follows: Fungal growth inhibition assay, Collectotrichum graminicola. The format is cell-based. The following applies: Colletotrichum graminicola, 48 hours, read-out: C. graminicola % growth inhibition at 48 hours. On the procedure: (§1) Spores were isolated from previously sub-cultured plates of Botrytis cinerea, Phytophthora capsici, Fusarium moniliforme, Fusarium viguliforme, Collectotrichum graminicola, and Diplodia maydis. All spores were filtered and collected in a sterile glass bowl to isolate the spores from the mycelia. The isolation and sub-culture plate condition for each pathogen is described below.
Spore isolation for C. graminicola: A 1-2 week old oatmeal agar (pre-mix) plate was removed from 26° C. incubator with a light/dark 12 hour cycle and the mycelia were treated with 10-15 ml of filter sterilized distilled water. The mycelia were scraped to re-suspend the spores. The spores were then collected in a sterile filter bowl containing a piece of sterile cheesecloth and poured into a conical tube.
(§2) After spore isolation, pathogen spores were counted on a hemocytometer to calculate the spores/ml. In 17% V8 liquid media containing 3 g/L CaCO3, isolated spores were diluted to individual concentrations based on the growth curves at 48 hours of each pathogen. The spore concentrations for each pathogen were as follows: B. cinerea—10,000 sp/ml; P. capsici—300 sp/ml; F. monliforme—500 sp/ml; F. virguliforme—500 sp/ml; C. graminicola—3,000 sp/ml; and D. maydis—3,000 sp/ml.
(§3) Chemistry stocks were dissolved in DMSO at 2.5 mg/ml. Chemistry was diluted in a 96-well stock plate in five-fold dilutions to obtain a final concentration of 50, 10, and 2 ppm in vitro. The final concentration of the positive control after the five-fold dilutions was as follows: soraphen—0.5, 0.1, and 0.02 ppm. Negative controls on each plate included 2% DMSO, water containing spores and media, and a blank for background subtraction.
(§4) In a 96-well plate the spore solution, chemistries, and controls were combined to make the final solution concentrations mentioned above. Upon addition of the chemistry, an OD600 reading was done to assess chemical precipitation. The 96-well plates were incubated in plastic tubs containing wet paper towels under the following conditions, 25° C. in the dark for P. capsici and B. cinerea or 26° C. with light/dark cycle for C. graminicola, D. maydis, F. virguliforme, F. monliforme. Plate readings were repeated at 24 and 48 hrs. Visual ratings were performed at 24 and 48 hrs to check for precipitation and confirm efficacy. Visual and OD600 ratings of the chemistry at 48 hours were compared to the 2% DMSO control to determine the percent of pathogen growth inhibition.

Assay [2] has as its system Diplodia maydis. The assay is described as follows: Fungal growth inhibition assay, Diplodia maydis. It is filed as cell-based. The following applies: 48 hours, read-out: D. maydis % growth inhibition at 48 hours. On the procedure:
as §1
Spore isolation for D. maydis: A 3-4 week old PDA (pre-mix) plate was removed from 26° C. incubator with a light/dark 12 hour cycle and the mycelia were treated with 6-7 ml of sterile distilled water, scraped into a sterile petri dish, and smashed to open the pycnidia. The spores were then collected in a sterile filter bowl containing a fluted piece of filter paper and poured into a conical tube.
as §2, §3, §4

In assay [3] the test system is Fusarium virguliforme. Nature of the assay: Fungal growth inhibition assay, Fusarium virguliforme. The format is cell-based. The following applies: 48 hours, read-out: F. virguliforme % growth inhibition at 48 hours. On the procedure:
as §1
Spore isolation for F. virguliforme: A 2-3 week old PDA (pre-mix) plate containing cefotaxime (100 mg/L) and kanamycin (50 mg/L) was removed from 26° C. incubator with a light/dark 12 hour cycle and the mycelia were treated with 5-10 ml of filter sterilized distilled water. The mycelia were scraped to re-suspend the spores. The spores were then collected in a sterile filter bowl containing a fluted piece of filter paper and poured into a conical tube.
as §2, §3, §4

The target of assay [4] is Ustilago maydis acetyl CoA carboxylase (ACCase) (Mycosarcoma maydis (Ustilago maydis), UniProt A0A0D1DYD5). The assay is described as follows: ACCase enzymatic assay (coupled PK/LDH, NADH OD340). It is filed as biochemical. The note with it: Table 1A; values marked a are a result of two or more experiments; read-out: ACCase Inhibitory Activity IC50.

Structures are written as SMILES. pIC50: −log10 of the molar value.

Ustilago maydis acetyl CoA carboxylase (ACCase), sequence (A0A0D1DYD5 1-2185): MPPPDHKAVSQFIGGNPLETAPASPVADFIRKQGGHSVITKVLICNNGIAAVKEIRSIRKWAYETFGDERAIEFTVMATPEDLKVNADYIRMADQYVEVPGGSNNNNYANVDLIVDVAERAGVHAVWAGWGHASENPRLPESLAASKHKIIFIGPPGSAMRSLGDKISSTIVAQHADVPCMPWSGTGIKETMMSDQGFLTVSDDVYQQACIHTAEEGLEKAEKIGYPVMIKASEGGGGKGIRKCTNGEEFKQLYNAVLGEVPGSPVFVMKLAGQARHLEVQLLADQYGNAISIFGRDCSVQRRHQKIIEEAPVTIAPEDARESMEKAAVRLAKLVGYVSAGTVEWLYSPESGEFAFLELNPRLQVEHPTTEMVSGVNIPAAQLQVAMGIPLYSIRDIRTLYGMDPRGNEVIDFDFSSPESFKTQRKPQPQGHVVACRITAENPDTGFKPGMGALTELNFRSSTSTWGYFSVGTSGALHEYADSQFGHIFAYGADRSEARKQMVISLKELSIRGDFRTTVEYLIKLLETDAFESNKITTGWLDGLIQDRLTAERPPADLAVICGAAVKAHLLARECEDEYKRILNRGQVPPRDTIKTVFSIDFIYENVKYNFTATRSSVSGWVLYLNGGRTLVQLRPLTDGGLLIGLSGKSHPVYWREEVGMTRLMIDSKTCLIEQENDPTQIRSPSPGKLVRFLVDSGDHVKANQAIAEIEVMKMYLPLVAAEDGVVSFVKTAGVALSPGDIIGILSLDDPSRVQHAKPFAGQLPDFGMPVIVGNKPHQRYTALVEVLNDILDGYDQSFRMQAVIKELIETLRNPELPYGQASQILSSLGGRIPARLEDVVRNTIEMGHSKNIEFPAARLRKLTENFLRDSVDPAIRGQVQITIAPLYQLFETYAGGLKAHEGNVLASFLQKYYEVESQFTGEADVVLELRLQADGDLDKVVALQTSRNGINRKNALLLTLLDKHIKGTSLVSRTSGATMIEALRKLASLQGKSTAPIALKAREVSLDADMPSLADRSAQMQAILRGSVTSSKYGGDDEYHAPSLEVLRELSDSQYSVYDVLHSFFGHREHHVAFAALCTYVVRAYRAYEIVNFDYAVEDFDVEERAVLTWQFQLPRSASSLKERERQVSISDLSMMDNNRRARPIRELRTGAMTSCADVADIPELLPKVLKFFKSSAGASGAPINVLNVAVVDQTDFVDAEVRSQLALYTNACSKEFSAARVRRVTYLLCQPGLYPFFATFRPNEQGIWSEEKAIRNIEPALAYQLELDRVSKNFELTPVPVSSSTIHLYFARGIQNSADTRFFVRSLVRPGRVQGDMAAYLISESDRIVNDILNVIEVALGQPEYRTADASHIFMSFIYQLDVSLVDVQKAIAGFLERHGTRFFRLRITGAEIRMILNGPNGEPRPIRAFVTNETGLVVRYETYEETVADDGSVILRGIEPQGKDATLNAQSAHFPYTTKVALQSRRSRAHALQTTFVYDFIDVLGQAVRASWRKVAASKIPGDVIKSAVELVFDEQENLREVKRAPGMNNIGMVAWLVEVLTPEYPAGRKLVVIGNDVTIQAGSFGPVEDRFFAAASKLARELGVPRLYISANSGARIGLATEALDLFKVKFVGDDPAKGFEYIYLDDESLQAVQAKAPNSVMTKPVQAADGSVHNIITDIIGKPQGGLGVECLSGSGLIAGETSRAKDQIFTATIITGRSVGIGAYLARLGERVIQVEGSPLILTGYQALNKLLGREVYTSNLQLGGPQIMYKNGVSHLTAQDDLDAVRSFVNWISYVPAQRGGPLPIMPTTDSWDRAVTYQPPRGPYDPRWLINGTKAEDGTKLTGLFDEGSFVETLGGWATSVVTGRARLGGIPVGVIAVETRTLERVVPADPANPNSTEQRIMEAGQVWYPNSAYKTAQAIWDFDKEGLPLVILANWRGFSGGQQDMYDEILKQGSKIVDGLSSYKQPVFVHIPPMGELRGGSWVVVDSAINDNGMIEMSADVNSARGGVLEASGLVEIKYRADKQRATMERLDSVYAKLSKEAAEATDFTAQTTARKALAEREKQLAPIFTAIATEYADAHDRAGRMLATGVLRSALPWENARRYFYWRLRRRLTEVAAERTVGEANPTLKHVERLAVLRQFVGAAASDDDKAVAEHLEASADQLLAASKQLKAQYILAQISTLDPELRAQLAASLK

Turning to `N#Cc1c(-c2cccs2)cc(-c2cccs2)nc1SC(C(=O)O)c1ccccc1` (racemic) [Formula Ia-iii, 2-((3-cyano-4,6-di(thiophen-2-yl)pyridin-2-yl)thio)-2-phenylacetic acid], the inhibition at 2 ppm in assay [1] (2 ppm) was 27%; in assay [2] (2 ppm), 0%; in assay [3], 2%. Besides, the inhibition at 10 ppm in assay [1] (10 ppm) came to 98%; in assay [2] (10 ppm), 87%; in assay [3], 84%. For the same compound, the inhibition at 50 ppm in assay [1] (50 ppm) was 91%; in assay [2] (50 ppm), 82%; in assay [3] (50 ppm), 90%.

`CCc1nc(SC(C(=O)O)c2ccccc2)c(C#N)c2c1CCCC2` (stereo not drawn) [Formula Ia-xv, 2-((4-cyano-1-ethyl-5,6,7,8-tetrahydroisoquinolin-3-yl)thio)-2-phenylacetic acid]: the pIC50 in assay [4] is 4.99. For the same compound, in assay [3], the inhibition at 2 ppm turned out to be 10% and the inhibition at 10 ppm was determined as 48%.
